Measured values: ChEMBL document CHEMBL4699613, “Synthesis and biological evaluation of indolylglyoxylamide bisphosphonates, antimitotic microtubule-targeting derivatives of indibulin with improved aqueous solubility” (Bioorg Med Chem Lett, 2020)

Assays:
Paracentrotus lividus [1] = experiment: Induction of microtubule destabilization in sea urchin embryo assessed as embryo spinning measured after 0.5 to 20 hrs; format: tissue-based; conditions: time hrs 0.5-20
Paracentrotus lividus [2] = experiment: Antimitotic activity against sea urchin embryo assessed as cleavage alteration measured 3 to 6 hrs post-fertilization by light microscopy analysis; format: functional; conditions: time hrs 3-6
Paracentrotus lividus [3] = experiment: Antimitotic activity against sea urchin embryo assessed as cleavage arrest measured 3 to 6 hrs post-fertilization by light microscopy analysis; format: functional; conditions: time hrs 3-6
Paracentrotus lividus [4] = experiment: Antimitotic activity against sea urchin embryo assessed as cleavage alteration measured 2.5 to 6 hrs post-fertilization by light microscopy analysis; format: functional; conditions: time hrs 2.5-6
Paracentrotus lividus [5] = experiment: Antimitotic activity against sea urchin embryo assessed as cleavage arrest measured 2.5 to 6 hrs post-fertilization by light microscopy analysis; format: functional; conditions: time hrs 2.5-6
A549 = experiment: Cytotoxicity against human A549 cells assessed as cell growth inhibition; format: functional, cell-based
HCT-116 = experiment: Cytotoxicity against human HCT-116 cells assessed as cell growth inhibition; format: functional, cell-based
SK-OV-3 = experiment: Cytotoxicity against human SK-OV-3 cells assessed as cell growth inhibition; format: functional, cell-based
PC-3 = experiment: Cytotoxicity against human PC-3 cells assessed as cell growth inhibition; format: functional, cell-based
DU-145 = experiment: Cytotoxicity against human DU-145 cells assessed as cell growth inhibition; format: functional, cell-based
T47D = experiment: Cytotoxicity against human T47D cells assessed as cell growth inhibition; format: functional, cell-based
[6] = Aggregation property of the compound in water; format: physicochemical; conditions: buffer
Paracentrotus lividus [7] = experiment: Antimitotic activity against sea urchin embryo assessed as cleavage alteration measured 2.5 to 5.5 hrs post-fertilization using compound stored for 1 hr in 96% EtOH at room temperature by light microscopy analysis; format: functional; conditions: time hrs 2.5-5.5
Paracentrotus lividus [8] = experiment: Antimitotic activity against sea urchin embryo assessed as cleavage arrest measured 2.5 to 5.5 hrs post-fertilization using compound stored for 1 hr in 96% EtOH at room temperature by light microscopy analysis; format: functional; conditions: time hrs 2.5-5.5
MCF7 = experiment: Cytotoxicity against human MCF7 cells assessed as cell growth inhibition measured after 24 to 48 hrs by SRB assay; format: functional, cell-based
[9] = Cytotoxicity against human KKU-100 cells assessed as cell growth inhibition after 48 hrs; format: functional, cell-based; conditions: KKU100, 48 h
Paracentrotus lividus [10] = experiment: Antimitotic activity against sea urchin embryo assessed as cleavage alteration measured 2.5 to 5.5 hrs post-fertilization using compound stored for 2 days in 96% EtOH at room temperature by light microscopy analysis; format: functional; conditions: time hrs 2.5-5.5
Paracentrotus lividus [11] = experiment: Antimitotic activity against sea urchin embryo assessed as cleavage alteration measured 2.5 to 5.5 hrs post-fertilization using compound stored for 4 days in 96% EtOH at room temperature by light microscopy analysis; format: functional; conditions: time hrs 2.5-5.5
Paracentrotus lividus [12] = experiment: Antimitotic activity against sea urchin embryo assessed as cleavage alteration measured 2.5 to 5.5 hrs post-fertilization using compound stored for 1 month in 96% EtOH at room temperature by light microscopy analysis; format: functional; conditions: time hrs 2.5-5.5
Paracentrotus lividus [13] = experiment: Antimitotic activity against sea urchin embryo assessed as cleavage arrest measured 2.5 to 5.5 hrs post-fertilization using compound stored for 2 days in 96% EtOH at room temperature by light microscopy analysis; format: functional; conditions: time hrs 2.5-5.5
Paracentrotus lividus [14] = experiment: Antimitotic activity against sea urchin embryo assessed as cleavage arrest measured 2.5 to 5.5 hrs post-fertilization using compound stored for 4 days in 96% EtOH at room temperature by light microscopy analysis; format: functional; conditions: time hrs 2.5-5.5
Paracentrotus lividus [15] = experiment: Antimitotic activity against sea urchin embryo assessed as cleavage arrest measured 2.5 to 5.5 hrs post-fertilization using compound stored for 1 month in 96% EtOH at room temperature by light microscopy analysis; format: functional; conditions: time hrs 2.5-5.5
A-375 = experiment: Cytotoxicity against human A-375 cells assessed as cell growth inhibition; format: functional, cell-based
HFF = experiment: Cytotoxicity against human HFF cells assessed as cell growth inhibition; format: cell-based
BXPC-3 = experiment: Cytotoxicity against human BXPC-3 cells assessed as cell growth inhibition measured after 72 hrs by MTT assay; format: functional, cell-based; conditions: BXPC-3, 72 h
CFPAC-1 = experiment: Cytotoxicity against human CFPAC-1 cells assessed as cell growth inhibition measured after 72 hrs by MTT assay; format: functional, cell-based; conditions: CFPAC-1, 72 h
PANC-1 = experiment: Cytotoxicity against human PANC-1 cells assessed as cell growth inhibition measured after 72 hrs by MTT assay; format: functional, cell-based; conditions: PANC-1, 72 h
HeLa = experiment: Cytotoxicity against human HeLa cells assessed as cell growth inhibition; format: functional, cell-based
SiHa = experiment: Cytotoxicity against human SiHa cells assessed as cell growth inhibition; format: functional, cell-based
Ca-Ski = experiment: Cytotoxicity against human Ca-Ski cells assessed as cell growth inhibition; format: functional, cell-based
Paracentrotus lividus [16] = experiment: Antimitotic activity against sea urchin embryo assessed as cleavage alteration measured 2.5 to 5.5 hrs post-fertilization using compound stored for 13 hrs in 96% EtOH at room temperature by light microscopy analysis; format: functional; conditions: time hrs 2.5-5.5
Paracentrotus lividus [17] = experiment: Antimitotic activity against sea urchin embryo assessed as cleavage alteration measured 2.5 to 5.5 hrs post-fertilization using compound stored for 2.5 days in 96% EtOH at room temperature by light microscopy analysis; format: functional; conditions: time hrs 2.5-5.5
Paracentrotus lividus [18] = experiment: Antimitotic activity against sea urchin embryo assessed as cleavage alteration measured 2.5 to 5.5 hrs post-fertilization using compound stored for 4.5 days in 96% EtOH at room temperature by light microscopy analysis; format: functional; conditions: time hrs 2.5-5.5
Paracentrotus lividus [19] = experiment: Antimitotic activity against sea urchin embryo assessed as cleavage arrest measured 2.5 to 5.5 hrs post-fertilization using compound stored for 13 hrs in 96% EtOH at room temperature by light microscopy analysis; format: functional; conditions: time hrs 2.5-5.5
Paracentrotus lividus [20] = experiment: Antimitotic activity against sea urchin embryo assessed as cleavage arrest measured 2.5 to 5.5 hrs post-fertilization using compound stored for 2.5 days in 96% EtOH at room temperature by light microscopy analysis; format: functional; conditions: time hrs 2.5-5.5
Paracentrotus lividus [21] = experiment: Antimitotic activity against sea urchin embryo assessed as cleavage arrest measured 2.5 to 5.5 hrs post-fertilization using compound stored for 4.5 days in 96% EtOH at room temperature by light microscopy analysis; format: functional; conditions: time hrs 2.5-5.5
[22] = Aqueous solubility of the compound at physiological pH by H-NMR analysis; format: physicochemical; conditions: aqueous solution
[23] = Selectivity ratio of IC50 for human HFF cells to IC50 for human A-375 cells assessed as cell growth inhibition

O=C(Nc1ccc2c(c1)OCCO2)C(=O)c1c[nH]c2ccccc12
EC (Paracentrotus lividus [1]): 0.02 µM
EC (Paracentrotus lividus [2]): 0.002 µM
EC (Paracentrotus lividus [3]): 0.005 µM

O=C(Nc1ccncc1)C(=O)c1cn(Cc2ccc(Cl)cc2)c2ccccc12 [INDIBULIN]
EC (Paracentrotus lividus [4]): 0.01 µM
EC (Paracentrotus lividus [5]): 0.02 µM
EC (Paracentrotus lividus [1]): 0.1 µM
IC50 (A549): 398 nM
IC50 (HCT-116): 50 nM
IC50 (SK-OV-3): 200 nM
IC50 (PC-3): 40 nM
IC50 (DU-145): 50 nM
IC50 (T47D): 40 nM
CAC [6]: 0.00039 mg/mL

O=C(Nc1ccc2c(c1)OCCO2)C(=O)c1c[nH]c2cc(F)ccc12
EC (Paracentrotus lividus [1]): 0.5 µM
EC (Paracentrotus lividus [2]): 0.005 µM
EC (Paracentrotus lividus [3]): 0.02 µM

CCOP(=O)(OCC)C(Cn1cc(C(=O)C(=O)Nc2ccc(OC)cc2)c2ccc(F)cc21)P(=O)(OCC)OCC
EC (Paracentrotus lividus [7]): 0.5 µM
EC (Paracentrotus lividus [1]): 0.5 µM
EC (Paracentrotus lividus [8]): 0.2 µM

CCOP(=O)(OCC)C(Cn1cc(C(=O)C(=O)Nc2ccc3c(c2)OCCO3)c2ccccc21)P(=O)(OCC)OCC
EC (Paracentrotus lividus [7]): 0.5 µM
EC (Paracentrotus lividus [1]): 0.1 µM
EC (Paracentrotus lividus [8]): 0.2 µM

NCCC(O)(P(=O)(O)O)P(=O)(O)O [PAMIDRONIC ACID]
IC50 (MCF7): 22900 nM
IC50 [9]: 147000 nM

O=P(O)(O)C(O)(Cc1cccnc1)P(=O)(O)O [RISEDRONIC ACID]
IC50 (MCF7): 248000 nM

CCOP(=O)(OCC)C(Cn1cc(C(=O)C(=O)Nc2ccc(OC)cc2)c2ccccc21)P(=O)(OCC)OCC
EC (Paracentrotus lividus [7]): 0.5 µM
EC (Paracentrotus lividus [1]): 0.2 µM
EC (Paracentrotus lividus [10]): 0.02 µM
EC (Paracentrotus lividus [11]): 0.005 µM
EC (Paracentrotus lividus [12]): 0.002 µM
EC (Paracentrotus lividus [8]): 0.2 µM
EC (Paracentrotus lividus [13]): 0.1 µM
EC (Paracentrotus lividus [14]): 0.02 µM
EC (Paracentrotus lividus [15]): 0.005 µM

COc1ccc(NC(=O)C(=O)c2c[nH]c3cc(F)ccc23)cc1
EC (Paracentrotus lividus [1]): 1 µM
EC (Paracentrotus lividus [2]): 0.001 µM
EC (Paracentrotus lividus [3]): 0.005 µM

NCCCC(O)(P(=O)(O)O)P(=O)(O)O [ALENDRONIC ACID]
IC50 (MCF7): 69500 nM

Nc1ncnc2c1ccn2[C@@H]1O[C@H](CO)[C@@H](O)[C@H]1O [TUBERCIDIN]
IC50 (A549): 44 nM
IC50 (HCT-116): 82 nM
IC50 (A-375): 43 nM
IC50 (SK-OV-3): 131 nM
IC50 (PC-3): 76 nM
IC50 (DU-145): 256 nM
IC50 (T47D): 13 nM
IC50 (HFF): 790 nM

O=P(O)(O)C(O)(Cn1ccnc1)P(=O)(O)O [ZOLEDRONIC ACID]
IC50 (BXPC-3): 10000 nM
IC50 (CFPAC-1): 10000 nM
IC50 (PANC-1): 10000 nM
IC50 (HeLa): 10000 nM
IC50 (SiHa): 10000 nM
IC50 (Ca-Ski): 10000 nM

CCOP(=O)(OCC)C(Cn1cc(C(=O)C(=O)Nc2ccc3c(c2)OCCO3)c2ccc(F)cc21)P(=O)(OCC)OCC
EC (Paracentrotus lividus [7]): 0.5 µM
EC (Paracentrotus lividus [1]): 0.1 µM
EC (Paracentrotus lividus [16]): 0.02 µM
EC (Paracentrotus lividus [17]): <0.02 µM
EC (Paracentrotus lividus [18]): <0.01 µM
EC (Paracentrotus lividus [8]): 0.2 µM
EC (Paracentrotus lividus [19]): 0.05 µM
EC (Paracentrotus lividus [20]): 0.02 µM
EC (Paracentrotus lividus [21]): 0.01 µM

COc1ccc(NC(=O)C(=O)c2cn(CC(P(=O)([O-])[O-])P(=O)([O-])[O-])c3ccccc23)cc1.[Na+].[Na+].[Na+].[Na+]
solubility [22]: 10000 µg/mL

CCOP(=O)(OCC)C(Cn1cc(C(=O)C(=O)Nc2cccc(OC)c2)c2ccc(F)cc21)P(=O)(OCC)OCC
EC (Paracentrotus lividus [7]): 1 µM
EC (Paracentrotus lividus [1]): > 4 µM
EC (Paracentrotus lividus [8]): >4 µM

COc1ccc(NC(=O)C(=O)c2cn(CC(P(=O)(O)O)P(=O)(O)O)c3ccccc23)cc1 [listing 1 of 2 here]
EC (Paracentrotus lividus [4]): 0.001 µM
EC (Paracentrotus lividus [5]): 0.002 µM
IC50 (A549): 223 nM
IC50 (HCT-116): 222 nM
IC50 (A-375): 34 nM
IC50 (SK-OV-3): 3230 nM
IC50 (PC-3): 7540 nM
IC50 (DU-145): 478 nM
IC50 (T47D): 658 nM
IC50 (HFF): 2390 nM
Ratio IC50 [23]: 70

CCOP(=O)(OCC)C(Cn1cc(C(=O)C(=O)O)c2ccc(F)cc21)P(=O)(OCC)OCC
EC (Paracentrotus lividus [4]): >4 µM
EC (Paracentrotus lividus [5]): >4 µM
EC (Paracentrotus lividus [1]): > 4 µM

COc1ccc(NC(=O)C(=O)c2c[nH]c3ccccc23)cc1
EC (Paracentrotus lividus [1]): 0.2 µM
EC (Paracentrotus lividus [2]): 0.001 µM
EC (Paracentrotus lividus [3]): 0.005 µM

COc1ccc(NC(=O)C(=O)c2cn(CC(P(=O)(O)O)P(=O)(O)O)c3ccccc23)cc1 [listing 2 of 2 here]
EC (Paracentrotus lividus [1]): 0.005 µM

COc1cccc(NC(=O)C(=O)c2c[nH]c3cc(F)ccc23)c1
EC (Paracentrotus lividus [1]): > 4 µM
EC (Paracentrotus lividus [2]): 0.2 µM
EC (Paracentrotus lividus [3]): >4 µM
